{
  "source": "patent US20150165380A1",
  "about": "“DRAW SOLUTES COMPRISING ALKYL AMMONIUM SALT COMPOUNDS” (Samsung Electronics Co., Ltd., priority 2013, published 2015)",
  "key": {"[1]": {"test": "Evaluation of osmotic pressure of draw solutions (Osmomat 010, freezing point lowering method)", "type": "physicochemical", "experimental": "Osmotic pressure of each draw solution is measured by using osmotic pressure measurement equipment (Osmomat 010) in accordance with the freezing point lowering method."}, "[2]": {"test": "Osmotic flow analysis: water flux and reverse solute flux in U-shaped semi-dynamic forward osmosis apparatus", "details": "feed distilled water", "experimental": "The osmotic flow is evaluated with a homemade, U-shaped semi-dynamic forward osmosis apparatus. To test performance of the draw solute, a semi-permeable commercialized FO membrane (cellulose trifluoroacetate) (Hydration Technology Innovation (HTI), USA) is placed in the middle of the apparatus. Each side is filled with distilled water as a feed solution and a draw solution with predetermined or given concentrations, respectively. The selective layer is faced toward the feed solutions and osmotic water flux from feed to draw solutions is calculated from the volumetric change of each solution during one hour after 30 min. The reversed solute flux from draw to feed solution through the membrane is measured by conductivity, inductively coupled plasma optical emission spectroscopy (ICP-OES), and total organic carbon (TOC)."}, "[3]": {"details": "draw solution osmotic pressure 15.0"}, "[4]": {"details": "draw solution osmotic pressure 29.0"}, "[5]": {"details": "draw solution osmotic pressure 43.0"}, "[6]": {"details": "draw solution osmotic pressure 8.3"}, "[7]": {"details": "draw solution osmotic pressure 23.5"}, "[8]": {"details": "draw solution osmotic pressure 57.6"}},
  "data": [
    {"smiles": "[Cl-].[Cl-].[Mg+2]", "note": "[Comp. Example 1, MgCl2]", "values": [
      {"measurement": "Osmotic pressure", "setting": "[1]; draw solution concentration 19.0 mg/ml", "value": 11.9, "unit": "atm"},
      {"measurement": "Osmotic pressure", "setting": "[1]; draw solution concentration 38.1 mg/ml", "value": 25.2, "unit": "atm"},
      {"measurement": "Osmotic pressure", "setting": "[1]; draw solution concentration 76.2 mg/ml", "value": 60.6, "unit": "atm"},
      {"measurement": "Reverse solute flux", "setting": "[2]; [3]", "value": 3.3, "unit": "GMH"},
      {"measurement": "Water flux", "setting": "[2]; [3]", "value": 5.6, "unit": "LMH"},
      {"measurement": "Reverse solute flux", "setting": "[2]; [4]", "value": 4.8, "unit": "GMH"},
      {"measurement": "Water flux", "setting": "[2]; [4]", "value": 8.2, "unit": "LMH"},
      {"measurement": "Reverse solute flux", "setting": "[2]; [5]", "value": 5.6, "unit": "GMH"},
      {"measurement": "Water flux", "setting": "[2]; [5]", "value": 9.7, "unit": "LMH"}
    ]},
    {"smiles": "NCCNCCN.O=S(=O)(O)O.O=S(=O)([O-])O.O=S(=O)([O-])[O-].[Na+].[Na+].[Na+]", "note": "[Example 7]", "values": [
      {"measurement": "Osmotic pressure", "setting": "[1]; draw solution concentration 46.3 mg/ml", "value": 10.2, "unit": "atm"},
      {"measurement": "Osmotic pressure", "setting": "[1]; draw solution concentration 92.6 mg/ml", "value": 18.2, "unit": "atm"},
      {"measurement": "Osmotic pressure", "setting": "[1]; draw solution concentration 185.2 mg/ml", "value": 20.4, "unit": "atm"},
      {"measurement": "Osmotic pressure", "setting": "[1]; draw solution concentration 277.8 mg/ml", "value": 26.8, "unit": "atm"},
      {"measurement": "Osmotic pressure", "setting": "[1]; draw solution concentration 370.4 mg/ml", "value": 37.6, "unit": "atm"},
      {"measurement": "Osmotic pressure", "setting": "[1]; draw solution concentration 463.0 mg/ml", "value": 62.8, "unit": "atm"}
    ]},
    {"smiles": "NCCNCCNCCNCCN.O=C(O)CC(O)(CC(=O)O)C(=O)[O-].O=C(O)CC(O)(CC(=O)O)C(=O)[O-].O=C([O-])CC(O)(CC(=O)O)C(=O)[O-].O=C([O-])CC(O)(CC(=O)[O-])C(=O)[O-].O=C([O-])CC(O)(CC(=O)[O-])C(=O)[O-].[Na+].[Na+].[Na+].[Na+].[Na+].[Na+].[Na+].[Na+].[Na+].[Na+]", "note": "[Example 2]", "values": [
      {"measurement": "Osmotic pressure", "setting": "[1]; draw solution concentration 34.2 mg/ml", "value": 6.3, "unit": "atm"},
      {"measurement": "Osmotic pressure", "setting": "[1]; draw solution concentration 68.5 mg/ml", "value": 11.8, "unit": "atm"},
      {"measurement": "Osmotic pressure", "setting": "[1]; draw solution concentration 102.7 mg/ml", "value": 17.5, "unit": "atm"},
      {"measurement": "Osmotic pressure", "setting": "[1]; draw solution concentration 205.43 mg/ml", "value": 37.5, "unit": "atm"},
      {"measurement": "Osmotic pressure", "setting": "[1]; draw solution concentration 301.2 mg/ml", "value": 67.1, "unit": "atm"}
    ]},
    {"smiles": "O=S(=O)([O-])[O-].[Mg+2]", "note": "[Comp. Example 2, MgSO4]", "values": [
      {"measurement": "Osmotic pressure", "setting": "[1]; draw solution concentration 60.2 mg/ml", "value": 11.7, "unit": "atm"},
      {"measurement": "Osmotic pressure", "setting": "[1]; draw solution concentration 120.4 mg/ml", "value": 25.8, "unit": "atm"},
      {"measurement": "Osmotic pressure", "setting": "[1]; draw solution concentration 240.7 mg/ml", "value": 62.4, "unit": "atm"},
      {"measurement": "Reverse solute flux", "setting": "[2]; [3]", "value": 0.9, "unit": "GMH"},
      {"measurement": "Water flux", "setting": "[2]; [3]", "value": 4.2, "unit": "LMH"},
      {"measurement": "Reverse solute flux", "setting": "[2]; [4]", "value": 1.2, "unit": "GMH"},
      {"measurement": "Water flux", "setting": "[2]; [4]", "value": 5.5, "unit": "LMH"}
    ]},
    {"smiles": "NCCN.O=C(O)CC(O)(CC(=O)O)C(=O)[O-].O=C([O-])CC(O)(CC(=O)[O-])C(=O)[O-].[Na+].[Na+].[Na+].[Na+]", "note": "[Example 1]", "values": [
      {"measurement": "Osmotic pressure", "setting": "[1]; draw solution concentration 29.6 mg/ml", "value": 5.8, "unit": "atm"},
      {"measurement": "Osmotic pressure", "setting": "[1]; draw solution concentration 118.4 mg/ml", "value": 21.8, "unit": "atm"},
      {"measurement": "Osmotic pressure", "setting": "[1]; draw solution concentration 177.6 mg/ml", "value": 33.8, "unit": "atm"},
      {"measurement": "Osmotic pressure", "setting": "[1]; draw solution concentration 236.8 mg/ml", "value": 50.4, "unit": "atm"},
      {"measurement": "Osmotic pressure", "setting": "[1]; draw solution concentration 266.4 mg/ml", "value": 61.1, "unit": "atm"},
      {"measurement": "Reverse solute flux", "setting": "[2]; [6]", "value": 0, "unit": "GMH"},
      {"measurement": "Water flux", "setting": "[2]; [6]", "value": 4.06, "unit": "LMH"},
      {"measurement": "Reverse solute flux", "setting": "[2]; [7]", "value": 0.02, "unit": "GMH"},
      {"measurement": "Water flux", "setting": "[2]; [7]", "value": 8.25, "unit": "LMH"},
      {"measurement": "Reverse solute flux", "setting": "[2]; [8]", "value": 0.41, "unit": "GMH"},
      {"measurement": "Water flux", "setting": "[2]; [8]", "value": 11.58, "unit": "LMH"}
    ]},
    {"smiles": "NCCCCCCNCCCCCCN.O=C(O)CC(O)(CC(=O)O)C(=O)[O-].O=C([O-])CC(O)(CC(=O)O)C(=O)[O-].O=C([O-])CC(O)(CC(=O)[O-])C(=O)[O-].[Na+].[Na+].[Na+].[Na+].[Na+].[Na+]", "note": "[Example 4]", "values": [
      {"measurement": "Osmotic pressure", "setting": "[1]; draw solution concentration 46.2 mg/ml", "value": 8.6, "unit": "atm"},
      {"measurement": "Osmotic pressure", "setting": "[1]; draw solution concentration 92.3 mg/ml", "value": 17.2, "unit": "atm"},
      {"measurement": "Osmotic pressure", "setting": "[1]; draw solution concentration 184.6 mg/ml", "value": 38.2, "unit": "atm"},
      {"measurement": "Osmotic pressure", "setting": "[1]; draw solution concentration 249.2 mg/ml", "value": 59.3, "unit": "atm"}
    ]}
  ]
}
